# Literature values in article PMC5646416 (Journal of clinical pharmacy and therapeutics, 2017).
# Conditions: single-dose pharmacokinetic studies
row,AUC higher in rs4149056 CC homozygotes than in rs4149056 TT homozygotes,SMILES
1,162–191%,O=C(O)C[C@H](O)C[C@H](O)/C=C/c1c(C2CC2)nc2ccccc2c1-c1ccc(F)cc1 [pitavastatin]
2,57–130%,CC[C@H](C)C(=O)O[C@H]1C[C@H](O)C=C2C=C[C@H](C)[C@H](CC[C@@H](O)C[C@@H](O)CC(=O)O)[C@H]21 [pravastatin]
3,62–117%,CC(C)c1nc(N(C)S(C)(=O)=O)nc(-c2ccc(F)cc2)c1/C=C/[C@@H](O)C[C@@H](O)CC(=O)O [rosuvastatin]
4,221%,CCC(C)(C)C(=O)O[C@H]1C[C@@H](C)C=C2C=C[C@H](C)[C@H](CC[C@@H](O)C[C@@H](O)CC(=O)O)[C@H]21 [simvastatin acid]
